The record followed here is ChEMBL document CHEMBL1142391, “Biologically active aspidofractinine alkaloids from Kopsia singapurensis” (J Nat Prod, 2008).

Structures are written as SMILES. Values after ≈ are worked out from the molar mass of the structure shown.

Common to all, as to format: functional, cell-based
Experiment [1] is described as follows: Cytotoxicity against vincristine-resistant human KB/VJ300 cells.
Experiment [2] concerns KB. The experiment in a line: Reversal of multidrug resistance in vincristine-resistant human KB cells in presence of 0.1 uM vincristine.
In experiment [3] the test system is KB. The experiment in a line: Reversal of multidrug resistance in vincristine-resistant human KB cells in presence of 0.121 uM vincristine.

As to `COC(=O)N1c2c(ccc(OC)c2O)[C@@]23CCN4C[C@@H]5O[C@@H]5[C@]5(CC[C@]12[C@](O)(C(=O)OC)[C@@H]5O)[C@H]43` [KOPSIMALINE C], the half-maximal inhibitory concentration (IC50) in experiment [1] was greater than 25 mg/L; in experiment [2] it was 18.2 mg/L.
In the case of `COC(=O)N1c2c(O)cccc2[C@@]23CCN4C[C@@H]5O[C@@H]5[C@]5(CC[C@]12[C@](O)(C(=O)OC)[C@@H]5O)[C@H]43` [KOPSIMALINE B], the IC50 in experiment [1] is greater than 25 mg/L; in experiment [2], 13 mg/L.
As for `COC(=O)N1c2c(ccc3c2OCO3)[C@@]23CCN4C[C@@H]5O[C@@H]5[C@]5(CC[C@]12[C@](O)(C(=O)OC)[C@@H]5O)[C@H]43` [KOPSIMALINE A], the half-maximal inhibitory concentration (IC50) in experiment [1] is greater than 25 mg/L; in experiment [3], 3.9 mM.
Regarding `CCOC(=O)[C@@H]1[C@@H](O)[C@@]23C=CCN4CC[C@@]5(c6ccccc6N[C@]15CC2)[C@@H]43` [KOPSILOSCINE J], the concentration for half-maximal inhibition (IC50) in experiment [1] is greater than 25 mg/L; in experiment [2] it was 15 mg/L.
For the compound `COC(=O)N1c2c(ccc3c2OCO3)[C@@]23CCN4C[C@@H]5O[C@@H]5[C@@]5([C@@H](O)[C@@](O)(C(=O)OC)[C@@]12C[C@@H]5O)[C@H]43` [KOPSIMALINE D], the concentration for half-maximal inhibition (IC50) in experiment [1] was 25 mg/L (≈ 49.8 µM); in experiment [2], 9.2 mg/L.
With `COC(=O)N1c2c(OC)cccc2[C@@]23CCN4C[C@@H]5O[C@@H]5[C@]5(CC[C@]12[C@](O)(C(=O)OC)[C@@H]5O)[C@H]43` [KOPSIMALINE E], the 50% inhibitory concentration (IC50) was greater than 25 mg/L in experiment [1] and 18 mg/L in experiment [2].

A word on the IC50: it is the point on the concentration scale where inhibition reaches its midpoint.
